“Also recorded” adds a separate entry of the source.
Key:
Hepa1-6 cell line [1] = assay: Mitochondrial membrane potential (ΔΨm), TMRE fluorophore; type: cell-based; conditions: FIG. 1b; for reduce ΔΨm: Hepa1-6, exposure 24 h; for Emax at 1 µM: Mus musculus, Hepa1-6, concentration of 1 μM, read-out: decrease of normalized ΔΨm, maximum response
Protocol: (§1) The tested compounds were dissolved in DMSO at a concentration of 100 mM and further diluted in PBS supplemented with 10% (v/v) DMSO. When necessary dissolution was enhanced by incubation at 50° C. and sonication at maximum output for 10 min. Hepa1.6 cell line (#CRL-1830, ATCC) was cultured in DMEM culture medium containing 1 g L^−1 glucose, 10% fetal bovine serum, 2 mM glutamine, 100 U mL^−1 Penicillin and 100 μg mL^−1 Streptomycin and 30 μM oleic acid. Cells were seeded at a density of 20000 cells per well in 96 well plates and incubated for several hours to allow the cells to attach at 37° C. with 5% CO2. Cells were then supplemented with the test substances at indicated concentrations (0.01-50 μM) and incubated for indicated time periods (24-48 h).
(§2) For all assays the tested substances were further diluted in 10% DMSO/PBS and added to the cells at the indicated concentrations with a final DMSO concentration of 0.01%. Negative vehicle controls were treated with 0.01% DMSO. Positive control was treated with 10 μM oligomycin or 10 μM FCCP (Carbonyl cyanide-4-(trifluoromethoxy) phenylhydrazone).
Mitochondrial membrane potential (ΔΨm) was assessed using the tetramethylrhodamine (TMRE) fluorophore. The cells were incubated with the test substances for 24 h and then loaded with TMRE at a final concentration of 200 nM for 45 min at 37° C. Positive control wells were treated with 10 μM FCCP 30 min before loading the cells with TMRE. The medium was removed and the cells were washed with PBS and supplemented with fresh culture medium. Fluorescence intensity of TRME was immediately measured (ex/em: 545/580 nm) using a plate reader spectrophotometer. The results were normalized to the fluorescence intensity measured in mock treated negative controls and the positive controls treated with 10 μM FCCP.

CD3+ T lymphocytes = assay: Activation induced proliferation of lymphocytes (PMA/Ionomycin), Cytopainter flow cytometry, T cells; type: cell-based, C57BL/6J mice; conditions: stimulation with PMA/Ionomycin; for division index of T-cells: FIG. 2a; for expansion index of T-cells: FIG. 2b
Protocol: (§3) Spleen and lymph nodes were collected from C57BL/6J mice and stored in RPMI medium on ice until further processing. Further procedures were performed using a laminar flow hood. Single cell suspensions were created by shearing the organs between two microscopy slides. Cell suspensions were passed through a 70 μm cell strainer to exclude remaining tissue chunks. Cells were washed in PBS and centrifuged at 300 g for 5 min at 4° C. During the preparation of splenic single cell suspension, erythrocytes were removed by incubating the cells for 5 min at rt in RBC lysis buffer followed by extensive washing in PBS. Cells were resuspended in RPMI medium and cell count was determined. Lymphocytes were kept on ice until further use.
(§4) A total 17×10^6 cells were suspended in 15 mL Krebs Ringer buffer (with HEPES, 1 g L^−1 glucose, 1 mM pyruvate), supplemented with 30 μL of Cytopainter blue stock solution (500×) (#ab176726, Abcam) and incubated for 30 min at 37° C. to let the CFSE analog accumulate in the cells. The remaining Cytopainter reagent that was not incorporated into the cells was quenched by addition of 10 mL FCS and incubated for 5 min at rt. Another 25 mL of PBS were added and cells were centrifuged at 300 g for 5 min at rt. The cells were then suspended in 12.75 mL of complete RPMI culture medium. 2×10^5 cells in a volume of 150 μL were added to the wells of 96 well plates. The cytopainter-loaded cells were supplemented with the test substances, or DMSO as a negative control and oligomycin as a positive control.
(§5) Cytopainter loaded lymphocytes were stimulated with PMA (15 ng mL^−1) and Ionomycin (0.5 μg mL^−1). All cells were incubated for 60 h at 37° C., 5% CO2. Lymphocytes were then washed with 2% FBS in PBS, supplemented with anti-CD16/CD32 antibodies (to block unspecific Fc-receptor binding) and incubated for 10 min at 4° C. Subsequently cells were incubated for 20 min at 4° C. with anti-CD3 antibodies conjugated to FITC (clone: 145-2C11, #11-0031-82, eBioscience) and anti-B220 antibodies conjugated to PerCP-Cy5.5 (clone:RA3-6B2, #45-0452-82, eBioscience) to label T cells and B cells, respectively. Cells were subsequently washed with 2% FBS in PBS analyzed.
(§6) Cell proliferation was then analyzed by assessing the fluorescence intensity of cytopainter in the cells by flow cytometry. Reduced intensity of cytopainter dye indicates cells that have undergone cell division. Data was analyzed using FlowJo v10.4.2. Proliferation parameters were derived using the FlowJo Proliferation Tool. The Expansion index determines the fold-expansion of the overall culture. The Division index expresses the average number of cell divisions that a cell in the original population has undergone and also includes the cells that have never divided.

isolated T cells = assay: Activation induced proliferation of isolated T cells, Cytopainter flow cytometry; type: cell-based, C57BL/6J mice; conditions: 2f
Protocol: as §3
T cell was enriched from the splenocytes by negative selection using magnetic bead separation (Pan T cell isolation kit II, mouse, #130-095-130, Miltenyi) achieving more than 90% purity. The cells were kept in RPMI medium until further use.
as §4
Cytopainter loaded T cells were stimulated using two different approaches. Either T cells stimulated by plate bound anti-CD3 antibodies (coated at 1 μg/mL) and soluble anti-CD28 antibodies (at a final concentration of 0.2 μg mL^−1), or in separate replicates by addition of the cytokines IL-2 (50 ng mL^−1) and IL-7 (10 ng mL^−1) to stimulate T cells proliferation and survival.
as §6

Hepa1-6 cell line [2] = assay: Cytotoxicity (Pierce LDH Cytotoxicity Assay Kit); type: cell-based; conditions: Hepa1-6, FIG. 1e
Protocol: as §1, §2
Cytotoxicity was assessed using the Pierce LDH Cytotoxicity Assay Kit (#88953, Thermo Fisher). […] Absorbance was measure at 490 nm and background at 680 nm. […] Cytotoxicity was expressed as the percentage of maximum signal intensity observed in freshly lysed cells.

Hepa1-6 cell line [3] = assay: Cellular redox potential (AlamarBlue); type: cell-based; conditions: Hepa1-6, 24 h, FIG. 1c
Protocol: as §1, §2
Cells were treated for 24 h with the test substances or controls ([…] DMSO, 10 μM FCCP and 10 μM oligomycin). […] Fluorescence was measured at ex/em: 550/590 nm. […]

B220+ B lymphocytes = assay: Activation induced proliferation of lymphocytes (PMA/Ionomycin), Cytopainter flow cytometry, B cells; type: cell-based, C57BL/6J mice; conditions: stimulation with PMA/Ionomycin; for division index of B-cells: FIG. 2c; for expansion index of B-cells: FIG. 2d
Protocol: as §3, §4, §5, §6

Hepa1-6 cell line [4] = assay: BrdU incorporation/cell proliferation assay; type: cell-based; conditions: for suppression of cells proliferation: Hepa1-6, exposure 48 h, FIG. 1d
Protocol: as §1, §2
Cells were incubated for a total of 48 h with the tested substances. During the last 12 h the cells were supplemented with 200 μM BrdU (#ab126556, Abcam). After the incubation period cells were washed with PBS. Following that the cells fixed and permeabilized using the reagents of the kit and labeled for 1 h with anti-BrdU antibodies conjugated with peroxidase. After washing the fixed cells 5 times with PBS the wells were incubated with peroxidase substrate TMB. The reaction was stopped after 30 min. The signal intensity was measure at absorbance 450 nm. Results were normalized to controls samples treated with vehicle (0.01% DMSO, negative control) or 10 μM oligomycin.

Hepa1-6 cell line [5] = assay: Cellular ATP content (CellTiter-Glo Assay); type: cell-based; conditions: Hepa1-6, exposure 24 h, FIG. 1a
Protocol: as §1
For all assays the tested substances were further diluted in 10% DMSO/PBS and added to the cells at the indicated concentrations with a final DMSO concentration of 0.01%. […]
Cells were treated for 24 h with the test substances at the indicated concentrations. The cellular ATP content was assessed using the CellTiter-Glo Assay (#G7571, Promega) as per the manufacturer's instructions. Luminescence was detected in a plate reader spectrophotometer. The results were normalized to the luminescence intensity measured in mock treated negative controls and the positive controls treated with 10 μM oligomycin.

[6] = stimulation with anti-CD3/CD28 antibodies, FIGS. 2e
[7] = stimulation with cytokines IL-2/IL-7, FIGS. 2e

SMILES | reduce ΔΨm (Hepa1-6 cell line [1]) | Emax at 1 µM (Hepa1-6 cell line [1]) | division index of T-cells (CD3+ T lymphocytes) | expansion index of T-cells (CD3+ T lymphocytes) | activation-induced proliferation of isolated T-cells (isolated T cells; [6]) | activation-induced proliferation of isolated T-cells (isolated T cells; [7]) | cytotoxic necrosis (Hepa1-6 cell line [2]) | effect on redox potential (Hepa1-6 cell line [3]) | division index of B-cells (B220+ B lymphocytes) | expansion index of B-cells (B220+ B lymphocytes) | rank in diminishing the proliferation of Hepa1-6 (Hepa1-6 cell line [4]; Hepa1-6, 1d versus 1q) | suppression of cells proliferation (Hepa1-6 cell line [4]) | deplete ATP production (Hepa1-6 cell line [5])
C[C@]12C=CC(=O)C[C@H]1N1CCc3c([nH]c4ccccc34)[C@@H]1CO2 [compound 1d, (2aS,6aR,14bR)-2a-Methyl-6,6a,8,9,14,14b-hexahydro-1H-benzo[5′,6′][1,4]oxazino[4′,3′:1,2]pyrido[3,4-b]indol-5(2 aH)-one] | 82% | 82% | non-significant effects | non-significant effects | did not significantly affect | did not significantly affect | without noticeable cytotoxic necrosis | increase; also recorded: strongly affected | non-significant effects | non-significant effects | most potent | potent suppression | up to 60%
C[C@]12CCC(=O)C[C@H]1N1CCc3c([nH]c4ccccc34)[C@@H]1CO2 [1q, (2aS,6aR,14bR)-2a-Methyl-3,4,6,6a,8,9,14,14b-octahydro-1H-benzo[5′,6′][1,4]oxazino[4′,3′:1,2]pyrido[3,4-k]indol-5(2aH)-one] | 77% | 90% | non-significant effects | non-significant effects | did not significantly affect | did not significantly affect | without noticeable cytotoxic necrosis | increase; also recorded: strongly affected | non-significant effects | non-significant effects | – | potent suppression | ≤ 50%

Source: US12269821B2, “Discovery of novel first in class nature-inspired compounds targeting the mitochondrial function and pharmaceutical composition thereof” (University of Sharjah, priority 2018, dated 2025)
